Patent US10669272B2, “Substituted naphthyridinone compounds useful as T cell activators” (BRISTOL-MYERS SQUIBB COMPANY, priority 2018, dated 2020)
Where two headings read alike, the source gives them in different places.

What was measured:
human DGKζ = molecular target: T1, human DGKζ (Homo sapiens, UniProt Q13574); experiment: DGKζ LIPGLO assay (extruded liposome substrate), in vitro DGK inhibition; format: biochemical; conditions: read-out: DGKz LIPGLO IC50
T1 construct: TVMV protease cleavage site (C); Hexa-His (C); made in house; host or cells: Sf9 insect cells (baculovirus, Bac-to-Bac)

Human venous whole blood = experiment: Human whole blood IFN-γ assay; format: cell-based; conditions: human whole blood, read-out: INFg Whole Blood Normalized Agonist EC50;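 also: blood from healthy donors exposed to compound for 1 h before stimulation with anti-CD3 and anti-CD28 at 1 µg/mL each, IFN-γ quantified in supernatant by AlphaLISA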
Experimental: Human Whole Blood IFN-γ Assay
Human venous whole blood (22.5 μL per well), obtained from healthy donors, was pre-treated with compounds for one hour at 37° C. in a humidified 95% air/5% CO2 incubator. The blood was stimulated with 2.5 μL anti-human CD3 and anti-CD28 mAb at a final concentration of 1 μg/mL each for 24 hours at 37° C. IFN-γ in the supernatants was measured using AlphLISA kit (Cat # AL217).

human DGKα = molecular target: T2, human DGKα (Homo sapiens, UniProt P23743); experiment: DGKα LIPGLO assay (extruded liposome substrate), in vitro DGK inhibition; format: biochemical; conditions: read-out: DGKa LIPGLO IC50
T2 construct: TVMV protease cleavage site (C); Hexa-His (C); made in house; host or cells: Sf9 insect cells (baculovirus, Bac-to-Bac)

[1] = Homo sapiens, 24 h, normalized to 3 μM reference compound with anti-CD3 plus anti-CD28 as 100% activation
[2] = normalized to 3 μM reference compound with anti-CD3 plus anti-CD28 as 100% activation
[3] = anti-CD3 plus anti-CD28, 24 hours, 3 μM reference compound = 100% activation

T2 sequence (P23743 with tags, fused parts or gaps): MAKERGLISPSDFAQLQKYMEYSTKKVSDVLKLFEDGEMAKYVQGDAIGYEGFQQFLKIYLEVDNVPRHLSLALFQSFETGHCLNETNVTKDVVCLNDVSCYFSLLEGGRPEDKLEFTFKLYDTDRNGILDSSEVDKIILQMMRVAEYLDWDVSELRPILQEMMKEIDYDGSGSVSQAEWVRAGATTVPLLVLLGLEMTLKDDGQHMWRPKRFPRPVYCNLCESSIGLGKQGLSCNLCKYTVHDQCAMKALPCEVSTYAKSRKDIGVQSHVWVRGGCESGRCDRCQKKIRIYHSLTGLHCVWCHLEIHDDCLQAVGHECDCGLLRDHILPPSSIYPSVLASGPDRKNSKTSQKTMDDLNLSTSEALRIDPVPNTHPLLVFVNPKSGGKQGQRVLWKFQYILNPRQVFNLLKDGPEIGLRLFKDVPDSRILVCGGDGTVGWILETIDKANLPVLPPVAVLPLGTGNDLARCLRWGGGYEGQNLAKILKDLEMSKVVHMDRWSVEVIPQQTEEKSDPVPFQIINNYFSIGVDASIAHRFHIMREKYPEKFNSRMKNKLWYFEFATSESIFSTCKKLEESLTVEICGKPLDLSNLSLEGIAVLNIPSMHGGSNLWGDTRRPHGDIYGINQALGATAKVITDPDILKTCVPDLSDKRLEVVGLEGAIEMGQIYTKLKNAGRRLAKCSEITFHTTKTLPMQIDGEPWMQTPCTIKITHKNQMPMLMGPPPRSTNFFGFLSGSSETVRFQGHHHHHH
T1 sequence (Q13574 with tags, fused parts or gaps isoform Q13574-4): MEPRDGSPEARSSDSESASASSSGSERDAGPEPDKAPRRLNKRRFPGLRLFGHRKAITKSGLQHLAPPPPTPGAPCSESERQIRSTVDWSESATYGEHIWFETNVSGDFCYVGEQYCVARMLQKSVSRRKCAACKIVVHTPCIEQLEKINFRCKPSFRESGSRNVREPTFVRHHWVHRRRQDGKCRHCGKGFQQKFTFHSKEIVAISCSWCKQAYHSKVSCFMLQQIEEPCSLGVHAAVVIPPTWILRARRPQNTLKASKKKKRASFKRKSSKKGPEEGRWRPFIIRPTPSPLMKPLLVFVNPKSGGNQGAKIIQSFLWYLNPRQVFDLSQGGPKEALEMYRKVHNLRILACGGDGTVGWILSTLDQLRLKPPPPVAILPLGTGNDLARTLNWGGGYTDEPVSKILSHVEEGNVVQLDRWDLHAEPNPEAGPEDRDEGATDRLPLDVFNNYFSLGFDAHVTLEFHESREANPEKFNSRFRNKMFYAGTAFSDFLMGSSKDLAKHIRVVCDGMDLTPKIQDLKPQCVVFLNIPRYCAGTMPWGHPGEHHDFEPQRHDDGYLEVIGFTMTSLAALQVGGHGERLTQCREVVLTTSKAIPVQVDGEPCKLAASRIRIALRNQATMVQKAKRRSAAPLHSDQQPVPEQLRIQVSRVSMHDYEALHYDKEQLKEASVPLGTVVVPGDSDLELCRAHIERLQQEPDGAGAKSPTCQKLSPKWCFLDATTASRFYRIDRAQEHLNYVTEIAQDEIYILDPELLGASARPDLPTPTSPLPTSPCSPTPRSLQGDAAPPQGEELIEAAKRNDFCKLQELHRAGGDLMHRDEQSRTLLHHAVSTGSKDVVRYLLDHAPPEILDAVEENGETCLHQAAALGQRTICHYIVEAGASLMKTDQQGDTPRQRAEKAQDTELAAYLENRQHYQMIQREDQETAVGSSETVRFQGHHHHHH

Compound	IC50 (human DGKζ; liposome (LIPGLO) assay) [nM]	EC50 (Human venous whole blood; [1]) [nM]	IC50 (human DGKα; liposome (LIPGLO) assay) [nM]	EC50 (Human venous whole blood; [2]) [nM]	IC50 (human DGKζ; DGKζ liposome (LIPGLO) assay) [nM]	EC50 (Human venous whole blood; Homo sapiens, 24 h, anti-CD3 plus anti-CD28, 24 hours, 3 μM reference compound = 100% activation) [nM]	IC50 (human DGKα; DGKα liposome (LIPGLO) assay) [nM]	EC50 (Human venous whole blood; [3]) [nM]
C[C@@H]1CN(c2cc(=O)n(C)c3ccc(C#N)nc23)[C@@H](C)CN1C(c1ccc(F)c(F)c1)c1ccccn1 (mixture of isomers) [Example 366, 8-((2S,5R)-4-((3,4-difluorophenyl)(pyridin-2-yl)methyl)-2,5-dimethylpiperazin-1-yl)-5-methyl-6-oxo-5,6-dihydro-1,5-naphthyridine-2-carbonitrile]	2000	490	570	–	–	–	–	–
C[C@@H]1CN(c2cc(=O)n(C)c3ccc(C#N)nc23)[C@@H](C)CN1C(c1ccc(F)cc1)C(F)(F)F (single isomer, unassigned) [Example 583]	950	–	100	460	–	–	–	–
CC[C@@H]1CN(c2cc(=O)n(C)c3ccc(C#N)nc23)[C@@H](C)CN1C(C)c1ccc(OC)cc1 (single isomer, unassigned) [Example 482]	170	–	130	290	–	–	–	–
CC(c1nc(C2CC2)cs1)N1C[C@H](C)N(c2cc(=O)n(C)c3ccc(C#N)nc23)C[C@H]1C (single isomer, unassigned) [Example 647]	75	–	220	5200	–	–	–	–
C[C@@H]1CN(C(c2ccc(F)cc2)c2ccc(Cl)cc2)[C@@H](CO)CN1c1cc(=O)n(C)c2ccc(C#N)nc12 (single isomer, unassigned) [Example 1174]	430	1400	11000	–	–	–	–	–
CCC(c1ccc(OC(F)(F)F)cc1F)N1C[C@H](C)N(c2cc(=O)n(C)c3ccc(C#N)nc23)C[C@H]1C (stereo partly drawn) [Example 438, 8-((2S,5R)-4-(1-(2-fluoro-4-(trifluoromethoxy)phenyl)propyl)-2,5-dimethylpiperazin-1-yl)-5-methyl-6-oxo-5,6-dihydro-1,5-naphthyridine-2-carbonitrile]	810	740	320	–	–	–	–	–
C[C@@H]1CN(c2cc(=O)n(C)c3ccc(C#N)nc23)[C@@H](C)CN1Cc1ccc(OC(F)F)cc1F [Example 590]	5100	1900	330	–	–	–	–	–
CC[C@H]1CN(C(C)c2ccc(C(F)(F)F)cc2)[C@H](C)CN1c1cc(=O)n(C)c2ccc(C#N)nc12 (single isomer, unassigned) [Example 1144]	1500	–	260	250	–	–	–	–
CC[C@H]1CN(C(C)c2ccc(OC(F)(F)F)cc2)[C@H](COC)CN1c1cc(=O)n(C)c2ccc(C#N)nc12 (single isomer, unassigned) [Example 1409]	810	2300	9200	–	–	–	–	–
CC(c1ccc(OC(F)(F)F)c(F)c1)N1C[C@H](C)N(c2cc(=O)n(C)c3ccc(C#N)nc23)C[C@H]1C (single isomer, unassigned) [Example 1269]	470	–	120	540	–	–	–	–
CC(c1cc(OC(F)F)ccc1F)N1C[C@H](C)N(c2cc(=O)n(C)c3ccc(C#N)nc23)C[C@H]1C (single isomer, unassigned) [Example 1229]	160	510	300	–	–	–	–	–
C[C@@H]1CN(c2cc(=O)n(C)c3ccc(C#N)nc23)[C@@H](C)CN1C(c1c(F)cc(O)cc1F)C(F)(F)F (single isomer, unassigned) [Example 592]	19000	3600	5500	–	–	–	–	–
C[C@@H]1CN(c2cc(=O)n(C)c3ccc(C#N)nc23)[C@@H](C)CN1Cc1cccc2c1ccn2C [Example 606]	66	1100	5200	–	–	–	–	–
CC1CN(C(c2ccc(F)cc2)c2nc(C(C)(C)C)no2)C(C)CN1c1c(C#N)c(=O)n(C)c2ccc(C#N)nc12 (single isomer, unassigned) [Example 862]	–	–	–	–	600	1200	290	–
CC(c1cccc(C(F)F)n1)N1C[C@H](C)N(c2cc(=O)n(C)c3ccc(C#N)nc23)C[C@H]1C (stereo partly drawn) [Example 1222]	110	520	16	–	–	–	–	–
C[C@@H]1CN(c2c(C#N)c(=O)n(C)c3ccc(C#N)nc23)[C@@H](C)CN1C(c1ccc(F)cc1)c1cc(C(C)(C)C)on1 (single isomer, unassigned) [Example 866]	–	–	–	–	940	–	390	2300

Compound	IC50 (human DGKζ; liposome (LIPGLO) assay) [nM]	EC50 (Human venous whole blood; [1]) [nM]	IC50 (human DGKα; liposome (LIPGLO) assay) [nM]	EC50 (Human venous whole blood; [2]) [nM]	IC50 (human DGKζ; DGKζ liposome (LIPGLO) assay) [nM]	EC50 (Human venous whole blood; Homo sapiens, 24 h, anti-CD3 plus anti-CD28, 24 hours, 3 μM reference compound = 100% activation) [nM]	IC50 (human DGKα; DGKα liposome (LIPGLO) assay) [nM]	EC50 (Human venous whole blood; [3]) [nM]
CC[C@H]1CN(C(C)c2ccc3c(c2)OC(F)(F)O3)[C@H](CC)CN1c1cc(=O)n(C)c2ccc(C#N)nc12 (single isomer, unassigned) [Example 1368]	34	–	330	63	–	–	–	–
C[C@@H]1CN(c2cc(=O)n(C)c3ccc(C#N)nc23)[C@@H](C)CN1C(c1ccc(F)cc1)c1cccc(C(F)F)n1 (single isomer, unassigned) [Example 696]	240	–	240	420	–	–	–	–
C[C@@H]1CN(c2cc(=O)n(C)c3ccc(C#N)nc23)[C@@H](C)CN1C(c1ccc(F)cc1)c1nccs1 (single isomer, unassigned) [Example 711]	3600	1700	69	–	–	–	–	–
Cc1cccc(C(c2ccc(F)cc2)N2CCN(c3c(C#N)c(=O)n(C)c4ccc(C#N)nc34)C[C@H]2C)c1 (stereo partly drawn) [Example 917]	–	–	–	–	700	–	6100	850
COCc1ccc(C(C)N2C[C@H](C)N(c3cc(=O)n(C)c4ccc(C#N)nc34)C[C@H]2C)cc1 (stereo partly drawn) [Example 1265]	48	–	49	120	–	–	–	–
Cc1ccc(C(c2cc(C)ccn2)N2C[C@H](C)N(c3cc(=O)n(C)c4ccc(C#N)nc34)C[C@H]2C)cc1 (single isomer, unassigned) [Example 461]	3600	–	1400	2100	–	–	–	–
CC(c1ccc(C2CC2)cc1F)N1C[C@H](C)N(c2cc(=O)n(C)c3ccc(C#N)nc23)C[C@H]1C (single isomer, unassigned) [Example 1201]	3400	5600	13000	–	–	–	–	–
C[C@@H]1CN(c2c(C#N)c(=O)n(C)c3ccc(C#N)nc23)CCN1C(c1ccc(Cl)cc1)c1ccc2c(c1)OC(F)(F)O2 (single isomer, unassigned) [Example 942]	–	–	–	–	2800	–	26000	20000
CC[C@@H]1CN(c2cc(=O)n(C)c3ccc(C#N)nc23)[C@@H](C)CN1C(C)c1ccc(C(F)(F)F)cc1F (single isomer, unassigned) [Example 1085]	32	–	360	160	–	–	–	–
CC[C@@H]1CN(c2cc(=O)n(C)c3ccc(C#N)nc23)[C@@H](C)CN1C(c1ccc(F)cc1)c1ccnc(C)n1 (single isomer, unassigned) [Example 418]	130	–	1500	280	–	–	–	–
CCc1ccc(C(c2cccc(Cl)c2)N2C[C@H](C)N(c3cc(=O)n(C)c4ccc(C#N)nc34)C[C@H]2C)nc1 (single isomer, unassigned) [Example 355]	740	340	890	–	–	–	–	–
COc1cc(OC(F)(F)F)ccc1CN1C[C@H](C)N(c2cc(=O)n(C)c3ccc(C#N)nc23)C[C@H]1C [Example 352, 8-((2S,5R)-4-(2-methoxy-4-(trifluoromethoxy)benzyl)-2,5-dimethylpiperazin-1-yl)-5-methyl-6-oxo-5,6-dihydro-1,5-naphthyridine-2-carbonitrile]	1700	790	520	–	–	–	–	–
CC[C@H]1CN(C(c2cccc(F)c2)c2ccc(OC)cn2)[C@H](CC)CN1c1cc(=O)n(C)c2ccc(C#N)nc12 (stereo partly drawn) [Example 1048]	150	190	83	–	–	–	–	–
C[C@@H]1CN(c2cc(=O)n(C)c3ccc(C#N)nc23)[C@@H](C)CN1C(c1cccc(F)c1)c1ccccn1 (single isomer, unassigned) [Example 379]	2100	1100	2000	–	–	–	–	–
C[C@@H]1CN(c2cc(=O)n(C)c3ccc(C#N)nc23)[C@@H](C)CN1C(c1ccc(C#N)cc1)c1ccc(F)cn1 (single isomer, unassigned) [Example 463]	4600	–	330	3700	–	–	–	–
